# Results from patent US20240299562A1 (priority 2020, published 2024).
# Read-outs that look alike come from different tables or passages of the source. *1 amine or outer side, *2 acyl side, *3 side chain or, on linkers, in order; H or OH if unused. Where a SMILES comes first, the peptide text is derived from it. [ ]: non-standard residue; d: D form. The star is where a group is joined. X1 = CO[C@@H](C1CCCN1[*:1])[C@@H](C)C(=O)[*:2]; Dil = CC[C@H](C)[C@H](NC)[C@@H](CC(=O)O)OC; PABC = O=C(OCc1ccc(N[*:1])cc1)[*:2]; Phosphonoacetyl = O=C(CP(=O)(O)O)*; X2 = C[C@@H](N*)[C@@H](O)c1ccccc1; NMeV = CN[C@H](C(=O)O)C(C)C
# Experiments:
# [1] = WST-1 cell viability, normal HME-1 cells; assay type: cell-based, human; settings: human
# Procedure: (§1) All commercial cell lines were purchased at ATCC (LGC Standards SARL, France). Cells were seeded in 96-well plates according to their optimal seeding density, varying between 5.000 and 10.000 cells/well. After attachment overnight, 10-point serial titrations (1:5) were prepared in their equivalent complete media as recommended by ATCC, starting from the 10 mM stock solutions. For doxorubicin comprising prodrugs dilutions started from 100 μM, while for the parent compound doxorubicin dilutions started at 10 μM. […] Seventy-two hours later, compounds were removed together with the supernatants and cells were washed once with PBS to remove excess drugs.
# (§2) The WST-1 assay for cell proliferation and viability (Roche, Switzerland) was performed according to manufacturer's protocol. Absorbances were measured at 4 hrs using a Perkin Elmer Ensight multiplate reader, equipped with Kaleido 2.0 software (Perkin Elmer, USA). Cell viability was expressed as a percentage compared to non-treated cells. Absolute IC50 values were extrapolated from a non-linear fitting following the Sigmoidal-4PL regression method using Graphpad Prism 7.0. Likewise, maximal efficacy was determined as 100% minus the cell viability determined when cells are incubated in the presence of a compound. For instance, if 20% of the cells survive incubation in the presence of a compound, then the maximal efficacy of that compound is 100%-20%=80%.
# (§3) Selectivity indices (SI) were defined as the ratio of the concentration of drug required to kill 50% of the cells in normal (control, non-cancer) cells, divided by the concentration required to exert the same efficacy in tumor cells: SI=IC50 (control cell)/IC50 (cancer cell), or SI=^HME-1IC50/cancer IC50.
# [2] = test system: HME-1 cells; experiment: WST-1 cell viability, normal HME-1 cells; assay type: cell-based, human; settings: for IC50: read-out: Absolute IC50
# Procedure: as §1, §2, §3
# [3] = test system: MIA PaCa-2 cells; experiment: WST-1 cell viability, MIA PaCa-2 pancreatic cancer cells; assay type: cell-based
# Procedure: as §1, §2, §3
# [4] = test system: LS 174T cells; experiment: WST-1 cell viability, LS 174T colorectal cancer cells; assay type: cell-based
# Procedure: as §1, §2, §3
# [5] = test system: HCT-116 cells; experiment: WST-1 cell viability, HCT-116 colorectal cancer cells; assay type: cell-based
# Procedure: as §1, §2, §3
# [6] = test system: A-172 cells; experiment: WST-1 cell viability, A-172 glioblastoma cells; assay type: cell-based; settings: for IC50: read-out: Absolute IC50
# Procedure: as §1, §2, §3
# [7] = test system: U-87 MG cells; experiment: WST-1 cell viability, U-87 MG glioblastoma cells; assay type: cell-based; settings: for IC50: read-out: Absolute IC50
# Procedure: as §1, §2, §3
# [8] = test system: MDA-MB-231 cells; experiment: WST-1 cell viability, MDA-MB-231 triple negative breast cancer cells; assay type: cell-based; settings: for IC50: read-out: Absolute IC50
# Procedure: as §1, §2, §3
# [9] = test system: MDA-MB-468 cells; experiment: WST-1 cell viability, MDA-MB-468 triple negative breast cancer cells; assay type: cell-based
# Procedure: as §1, §2, §3
# [10] = test system: A2780 Cp cells; experiment: WST-1 cell viability, A2780 CpR (cisplatin resistant) ovarian cancer cells; assay type: cell-based
# Procedure: as §1, §2, §3
# [11] = test system: A2058 cells; experiment: WST-1 cell viability, A2058 melanoma cells; assay type: cell-based; settings: for IC50: read-out: Absolute IC50
# Procedure: as §1, §2, §3
# [12] = test system: NCI-H292 cells; experiment: WST-1 cell viability, NCI-H292 lung cancer cells; assay type: cell-based
# Procedure: as §1, §2, §3
# [13] = test system: U87 MG glioblastoma cells subcutaneously implanted in nude NMRI mice; experiment: In vivo activity of PhAc-ALLP-Dox on U87 MG glioblastoma xenograft; set-up: species or system mouse; settings: 5 mg/kg iv, once per week
# Procedure: The in vivo efficacy of PhAc-ALLP-Dox was tested in a mouse GBM model. U87 MG glioblastoma cells were subcutaneously (SC) implanted in nude NMRI mice. In total, 32 adult (9-10 weeks old) nude female NMRI mice (Janvier, France) were subjected to SC tumor cell grafting in the right flank. In total, 5×10^6 U87 MG cells resuspended in PBS plus Matrigel (1:1) were injected in 200 uL final volume. As soon as the tumors were palpable and reached the volume of 200 mm3 the treatment was started. At day zero, mice were randomly divided into 4 groups, based on the tumor volume, in order to have the following experimental sub-cohorts: • control group receiving the vehicle (PBS pH7.2) with a dose of 5 ml/kg, intravenously (iv), once per week (QW); • PhAc-ALLP-Dox (30 mg/kg iv, QW); • PhAc-ALGP-Dox (154 mg/kg iv, QW); • Dox (5 mg/kg iv, QW).
# Treatments were performed once per week for a total of four tail vein administrations/injections (on days 1, 7, 14 and 21). One extra week of observation followed the active treatment phase. During the experiment, tumor volume was measured two times a week and was assessed three-dimensionally with a digital caliper (Mitutoyo, Illinois) using the following formula:
# V=4/3π×[(d/2)^2×(D/2)], where d is the minor tumor axis and D is the major tumor axis.
# [14] = test system: Human umbilical vein endothelial cells (HUVEC); experiment: WST-1 cell viability, normal HUVEC cells; assay type: cell-based; settings: 72 hrs
# Procedure: as §1, §2, §3
structure (smiles),measurement,setting,value
"COc1cccc2c1C(=O)c1c(O)c3c(c(O)c1C2=O)C[C@@](O)(C(=O)CO)C[C@@H]3O[C@H]1C[C@H](N)[C@H](O)[C@H](C)O1 [Doxorubicin, reference compound]","cytotoxicity at 72 h, 100 µM",[1],96.5%
same,SI = HME-1 IC50/cancer IC50,[2]; HME-1 normal cells against themselves (Table 3),1.00
same,IC50,"[2]; Homo sapiens, HME1, HME-1 normal cells, 72 hrs continuous drug exposure, WST-1 (Table 1)",40 nM
same,IC50,"[3]; Homo sapiens, MIA PaCa-2 (PaC), 72 hrs, WST-1 (Table 1), read-out: Absolute IC50",100 nM
same,cytotoxicity at 100 µM,"[3]; Homo sapiens, MIA PaCa-2 (PaC), 72 hrs, WST-1 (Table 2), read-out: Maximal efficacy, cytotoxicity (%) at 100 μM",94.4%
same,SI = HME-1 IC50/cancer IC50,[3]; MIA PaCa-2 (PaC) vs HME-1 (Table 3),0.44
same,IC50,"[4]; Homo sapiens, LS174T, LS 174T (CrC), 72 hrs, WST-1 (Table 1), read-out: Absolute IC50",10 nM
same,cytotoxicity at 100 µM,"[4]; Homo sapiens, LS174T, LS 174T (CrC), 72 hrs, WST-1 (Table 2), read-out: Maximal efficacy, cytotoxicity (%) at 100 μM",93.7%
same,SI = HME-1 IC50/cancer IC50,[4]; LS 174T (CrC) vs HME-1 (Table 3),4.47
same,SI = HME-1 IC50/cancer IC50,[5]; HCT-116 (CrC) vs HME-1 (Table 3),0.36
same,IC50,"[5]; Homo sapiens, HCT-116 (CrC), 72 hrs, WST-1 (Table 1), read-out: Absolute IC50",120 nM
same,cytotoxicity at 100 µM,"[5]; Homo sapiens, HCT-116 (CrC), 72 hrs, WST-1 (Table 2), read-out: Maximal efficacy, cytotoxicity (%) at 100 μM",93.5%
same,SI = HME-1 IC50/cancer IC50,[6]; A-172 (GBM) vs HME-1 (Table 3),0.01
same,cytotoxicity at 100 µM,"[6]; Homo sapiens, A 172, 72 h, read-out: Maximal efficacy, cytotoxicity (%) at 100 μM",89.9%
same,IC50,"[6]; Homo sapiens, A-172 (GBM), 72 hrs, WST-1 (Table 1)",3360 nM
same,cytotoxicity at 100 µM,"[7]; Homo sapiens, U-87 MG, 72 h, read-out: Maximal efficacy, cytotoxicity (%) at 100 μM",71.8%
same,IC50,"[7]; Homo sapiens, U-87 MG (GBM), 72 hrs, WST-1 (Table 1)",70 nM
same,SI = HME-1 IC50/cancer IC50,[7]; U-87 MG (GBM) vs HME-1 (Table 3),0.59
same,cytotoxicity at 100 µM,"[8]; Homo sapiens, MDA-MB-231, 72 h, read-out: Maximal efficacy, cytotoxicity (%) at 100 μM",91.5%
same,IC50,"[8]; Homo sapiens, MDA-MB-231 (TNBC), 72 hrs, WST-1 (Table 1)",120 nM
same,SI = HME-1 IC50/cancer IC50,[8]; MDA-MB-231 (TNBC) vs HME-1 (Table 3),0.38
same,IC50,"[9]; Homo sapiens, MDA-MB-468 (TNBC), 72 hrs, WST-1 (Table 1), read-out: Absolute IC50",< 10 nM
same,cytotoxicity at 100 µM,"[9]; Homo sapiens, MDA-MB-468 (TNBC), 72 hrs, WST-1 (Table 2), read-out: Maximal efficacy, cytotoxicity (%) at 100 μM",95.5%
same,SI = HME-1 IC50/cancer IC50,[9]; MDA-MB-468 (TNBC) vs HME-1 (Table 3),12.64
same,cytotoxicity at 100 µM,"[10]; A2780C/P, A2780 Cp (OvC), 72 hrs, WST-1 (Table 2), read-out: Maximal efficacy, cytotoxicity (%) at 100 μM",94.8%
same,IC50,"[10]; A2780C/P, A2780 Cp (OvC, cisplatin resistant), 72 hrs, WST-1 (Table 1), read-out: Absolute IC50",80 nM
same,SI = HME-1 IC50/cancer IC50,[10]; A2780 Cp (OvC) vs HME-1 (Table 3),0.57
same,SI = HME-1 IC50/cancer IC50,[11]; A2058 (Melanoma) vs HME-1 (Table 3),0.11
same,cytotoxicity at 100 µM,"[11]; Homo sapiens, A2058, 72 h, read-out: Maximal efficacy, cytotoxicity (%) at 100 μM",97%
same,IC50,"[11]; Homo sapiens, A2058 (Melanoma), 72 hrs, WST-1 (Table 1)",410 nM
same,IC50,"[12]; Homo sapiens, NCI-H292 (NSCLC), 72 hrs, WST-1 (Table 1), read-out: Absolute IC50",30 nM
same,cytotoxicity at 100 µM,"[12]; Homo sapiens, NCI-H292 (NSCLC), 72 hrs, WST-1 (Table 2), read-out: Maximal efficacy, cytotoxicity (%) at 100 μM",90.4%
same,SI = HME-1 IC50/cancer IC50,[12]; NCI-H292 (NSCLC) vs HME-1 (Table 3),1.62
same,Tumor growth,[13],significantly reduced tumor growth
CC[C@H](C)[C@@H]([C@@H](CC(=O)N1CCCC1[C@H](OC)[C@@H](C)C(=O)N[C@H](C)[C@@H](O)c1ccccc1)OC)N(C)C(=O)[C@@H](NC(=O)[C@H](C(C)C)N(C)C(=O)OCc1ccc(NC(=O)[C@@H]2CCCN2C(=O)[C@H](CC(C)C)NC(=O)[C@H](CC(C)C)NC(=O)[C@H](C)NC(=O)CP(=O)(O)O)cc1)C(C)C (stereo partly drawn) [PhAc-ALLP-PABC-MMAE] (Phosphonoacetyl-ALLP[PABC][NMeV]V[Dil][X1]-X2),Toxicity compared to MMAE on mammary epithelial (HME-1) cells,[2]; HME-1 normal cells,not significantly different
same,IC50,"[2]; HME-1 normal cells, 72 hrs, WST-1 (Table 4)",10 nM
same,Maximal efficacy,"[2]; HME-1 normal cells, 72 hrs, WST-1, cytotoxicity at highest concentration (Table 5)",99.5%
same,SI = HUVEC IC50 / cancer IC50,"[6]; A-172 (GBM), * towards HUVEC cells (Table 6)",*1.9
same,SI = iAstro IC50 / cancer IC50,"[6]; A-172 (GBM), ** towards hiPSCs (iAstro) (Table 6)",**>500
same,SI = normal IC50 / cancer IC50,"[6]; A-172 (GBM), selectivity towards HME-1 cells (Table 6)",0.1
same,IC50,"[6]; A-172 (GBM), 72 hrs, WST-1 (Table 4)",90 nM
same,Maximal efficacy,"[6]; A-172 (GBM), 72 hrs, WST-1 (Table 5)",97.4%
same,"Selectivity index determined on HUVECs, GBM","[6]; GBM indication as a whole (A-172 and U-87 MG), vs HUVEC",2.2
same,"Selectivity index towards hiPSC-derived astrocytes, GBM","[6]; GBM indication as a whole (A-172 and U-87 MG), vs iAstro",> 10
same,SI = HUVEC IC50 / cancer IC50,"[7]; U-87 MG (GBM), * towards HUVEC cells (Table 6)",*2.4
same,SI = iAstro IC50 / cancer IC50,"[7]; U-87 MG (GBM), ** towards hiPSCs (iAstro) (Table 6)",**>500
same,SI = normal IC50 / cancer IC50,"[7]; U-87 MG (GBM), selectivity towards HME-1 cells (Table 6)",0.1
same,IC50,"[7]; U-87 MG (GBM), 72 hrs, WST-1 (Table 4)",70 nM
same,Maximal efficacy,"[7]; U-87 MG (GBM), 72 hrs, WST-1 (Table 5)",86.6%
same,SI = normal IC50 / cancer IC50,"[8]; MDA-MB-231 (TNBC), selectivity towards HME-1 cells (Table 6)",0.2
same,IC50,"[8]; MDA-MB-231 (TNBC), 72 hrs, WST-1 (Table 4)",40 nM
same,Maximal efficacy,"[8]; MDA-MB-231 (TNBC), 72 hrs, WST-1 (Table 5)",77.6%
same,SI = normal IC50 / cancer IC50,"[11]; A2058 (Melanoma), selectivity towards HME-1 cells (Table 6)",0.3
same,IC50,"[11]; A2058 (Melanoma), 72 hrs, WST-1 (Table 4)",30 nM
same,Maximal efficacy,"[11]; A2058 (Melanoma), 72 hrs, WST-1 (Table 5)",95.2%
same,IC50,"[14]; WST-1 (Table 4), read-out: Absolute IC50",170 nM
same,Maximal efficacy,[14]; WST-1 (Table 5),98.1%
